Measured values taken from ChEMBL document CHEMBL1133259, “Polymethylcarborane as a novel bioactive moiety: derivatives with potent retinoid antagonistic activity” (Bioorg Med Chem Lett, 2000).

Test system: HL-60
Assay: Inhibitory concentration which reduces half the percentage of differentiated HL-60 cells induced by 1x 10 e-9 M Am80
Assay type: functional, cell-based
Settings: Homo sapiens

Compound: CN1c2cc3c(cc2N=C(c2ccc(C(=O)O)cc2)c2ccc4ccccc4c21)C(C)(C)CCC3(C)C
- IC50: 17 nM
